In patent publication US9302999B2, “Substituted triazoles as herbicides” (E. I. DU PONT DE NEMOURS AND COMPANY, priority 2012, dated 2016):

Experiments:
wild oat (Avena fatua) = assay: Test C pre-/postemergence: wild oat; assay type: in vivo; details: Postemergence
Method in brief: (§1)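 Preemergence on seeds in loam/sand, postemergence on 2–18 cm (1–4-leaf) plants in peat-based medium; compounds in non-phytotoxic solvent with surfactant. After 13–15 days in greenhouse, visual rating versus controls, 0 (no effect) to 100 (complete control).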

[1] = system: winter wheat (Triticum aestivum); assay: Test C pre-/postemergence: winter wheat; assay type: in vivo
Method in brief: as §1

[2] = system: galium (catchweed bedstraw, Galium aparine); assay: Test C pre-/postemergence: galium; assay type: in vivo
Method in brief: as §1

[3] = system: pigweed (Amaranthus retroflexus); assay: Test C pre-/postemergence: pigweed; assay type: in vivo
Method in brief: as §1

[4] = system: barnyardgrass (Echinochloa crus-galli); assay: Test B flooded paddy: barnyardgrass; assay type: in vivo; details: Flood; 250 g ai/ha; applied to paddy water at 2-leaf stage; visually evaluated after 13 to 15 days
Method in brief: (§2)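 Plants were grown to the 2-leaf stage, then pots were flooded to 3 cm above the soil and compounds were applied directly into the paddy water. Water depth was held for the whole test; after 13 to 15 days in a greenhouse, injury was visually rated against untreated controls (0 = no effect, 100 = complete control).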

[5] = system: velvetleaf (Abutilon theophrasti); assay: Test C pre-/postemergence: velvetleaf; assay type: in vivo
Method in brief: as §1

[6] = system: velvetleaf (Abutilon theophrasti); assay: Test A pre-/postemergence: velvetleaf; assay type: in vivo
Method in brief: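 Injury was scored visually on a 0 (no effect) to 100 (complete control) scale versus untreated controls roughly ten days after treatment in the greenhouse. Compounds, formulated in surfactant-containing non-phytotoxic solvent, went on as soil-directed preemergence spray or postemergence to one- to two-leaf plants 2–10 cm tall.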

rice (Oryza sativa) = assay: Test B flooded paddy: rice; assay type: in vivo; details: Flood; 250 g ai/ha; applied to paddy water at 2-leaf stage; visually evaluated after 13 to 15 days
Method in brief: as §2

Barnyardgrass [7] = assay: Test C postemergence: barnyardgrass; assay type: in vivo, Echinochloa crus-galli; details: 125 g ai/ha, scale 0 to 100, 0 no effect, 100 complete control
Source text: Seeds of plant species selected from blackgrass (Alopecurus myosuroides), bromegrass, downy (downy bromegrass, Bromus tectorum), foxtail, green (green foxtail, Setaria viridis), ryegrass, Italian (Italian ryegrass, Lolium multiflorum), winter wheat (Triticum aestivum), wild oat (Avena fatua), galium (catchweed bedstraw, Galium aparine), bermudagrass (Cynodon dactylon), surinam grass (Brachiaria decumbens), cocklebur (common cocklebur, Xanthium strumarium), corn (Zea mays), large crabgrass (Digitaria sanguinalis), woolly cupgrass (Eriochloa villosa), foxtail, giant (giant foxtail, Setaria faberii), goosegrass (Eleusine indica), johnsongrass (Sorghum halepense), kochia (Kochia scoparia), lambsquarters (Chenopodium album), morningglory (Ipomoea coccinea), nightshade (eastern black nightshade, Solanum ptycanthum), nutsedge, yellow (yellow nutsedge, Cyperus esculentus), pigweed (Amaranthus retroflexus), ragweed (common ragweed, Ambrosia elation), soybean (Glycine max), common (oilseed) sunflower (Helianthus annuus), Russian thistle (Salsola kali) and velvetleaf (Abutilon theophrasti) were planted into a blend of loam soil and sand and treated preemergence with test chemicals formulated in a non-phytotoxic solvent mixture which included a surfactant.
At the same time, plants selected from these crop and weed species and also barley (winter barley, Hordeum vulgare), canarygrass (Phalaris minor), chickweed (common chickweed, Stellaria media) windgrass (Apera spica-venti) and deadnettle (henbit deadnettle, Lamium amplexicaule) were planted in pots containing Redi-Earth® planting medium (Scotts Company, 14111 Scottslawn Road, Marysville, Ohio 43041) comprising spaghnum peat moss, vermiculite, wetting agent and starter nutrients and treated with postemergence applications of test chemicals formulated in the same manner. Plants ranged in height from 2 to 18 cm (1- to 4-leaf stage) for postemergence treatments.
Treated plants and controls were maintained in a greenhouse for 13 to 15 days, after which time all species were compared to controls and visually evaluated. Plant response ratings, summarized in Table C, are based on a scale of 0 to 100 where 0 is no effect and 100 is complete control. A dash (-) response means no test result.

Barnyardgrass [8] = assay: Test C preemergence: barnyardgrass; assay type: in vivo, Echinochloa crus-galli
[9] = 31 g ai/ha, scale 0 to 100 (0 no effect, 100 complete control)
[10] = 62 g ai/ha, scale 0 to 100 (0 no effect, 100 complete control)
[11] = 125 g ai/ha, scale 0 to 100, 0 no effect, 100 complete control
[12] = 250 g ai/ha, scale 0 to 100 (0 no effect, 100 complete control)
[13] = Postemergence, 31 g ai/ha, scale 0 to 100 (0 no effect, 100 complete control)
[14] = Postemergence, 62 g ai/ha, scale 0 to 100 (0 no effect, 100 complete control)
[15] = Postemergence, 125 g ai/ha, scale 0 to 100, 0 no effect, 100 complete control
[16] = Postemergence, 250 g ai/ha, scale 0 to 100 (0 no effect, 100 complete control)
[17] = Preemergence, 31 g ai/ha, scale 0 (no effect) to 100 (complete control)
[18] = Preemergence, 62 g ai/ha, scale of 0 to 100, 0 is no effect, 100 is complete control
[19] = Preemergence, 125 g ai/ha, scale 0 to 100, 0 no effect, 100 complete control
[20] = Preemergence, 250 g ai/ha, scale 0 to 100, 0 no effect, 100 complete control
[21] = Postemergence, 125 g ai/ha, 0 to 100 scale, 0 is no effect, 100 is complete control
[22] = Postemergence, 500 g ai/ha, 0 to 100 scale, 0 is no effect, 100 is complete control
[23] = Preemergence, 125 g ai/ha, 0 to 100 scale where 0 is no effect and 100 is complete control
[24] = Preemergence, 500 g ai/ha, 0 to 100 scale (0 no effect, 100 complete control)
[25] = 31 g ai/ha, scale 0 (no effect) to 100 (complete control)
[26] = 62 g ai/ha, scale of 0 to 100, 0 is no effect, 100 is complete control

SMILES: CCCc1nn(-c2ccc(C(F)(F)F)cc2)nc1Oc1ccnc(C(F)(F)F)c1 [Compound 170]
- Plant response rating, Oat, Wild (wild oat (Avena fatua); [9]): 30
- Plant response rating, Oat, Wild (wild oat (Avena fatua); [10]): 65
- Plant response rating, Oat, Wild (wild oat (Avena fatua); [11]): 85
- Plant response rating, Oat, Wild (wild oat (Avena fatua); [12]): 90
- Plant response rating, Wheat [1, 13]: 10
- Plant response rating, Wheat [1, 14]: 20
- Plant response rating, Wheat [1, 15]: 35
- Plant response rating, Wheat [1, 16]: 35
- Plant response rating, Wheat [1, 17]: 10
- Plant response rating, Wheat [1, 18]: 40
- Plant response rating, Wheat [1, 19]: 60
- Plant response rating, Wheat [1, 20]: 60
- Plant response rating, Galium [2, 13]: 80
- Plant response rating, Galium [2, 14]: 90
- Plant response rating, Galium [2, 15]: 90
- Plant response rating, Galium [2, 16]: 90
- Plant response rating, Galium [2, 17]: 98
- Plant response rating, Galium [2, 18]: 100
- Plant response rating, Galium [2, 19]: 100
- Plant response rating, Galium [2, 20]: 100
- Plant response rating, Pigweed [3, 13]: 100
- Plant response rating, Pigweed [3, 14]: 100
- Plant response rating, Pigweed [3, 15]: 100
- Plant response rating, Pigweed [3, 16]: 100
- Plant response rating, Pigweed [3, 17]: 100
- Plant response rating, Pigweed [3, 18]: 100
- Plant response rating, Pigweed [3, 19]: 100
- Plant response rating, Pigweed [3, 20]: 100
- Plant response rating, Barnyardgrass (0 to 100 scale, 0 is no effect, 100 is complete control) [4]: 80
- Plant response rating, Velvetleaf [5, 13]: 75
- Plant response rating, Velvetleaf [5, 14]: 85
- Plant response rating, Velvetleaf [5, 15]: 85
- Plant response rating, Velvetleaf [5, 16]: 90
- Plant response rating, Velvetleaf [5, 17]: 60
- Plant response rating, Velvetleaf [5, 18]: 100
- Plant response rating, Velvetleaf [5, 19]: 100
- Plant response rating, Velvetleaf [5, 20]: 100
- Plant response rating, Velvetleaf [6, 21]: 100
- Velvetleaf plant response rating [6, 22]: 100
- Plant response rating, Velvetleaf [6, 23]: 90
- Plant response rating, Velvetleaf [6, 24]: 100
- Plant response rating, Rice (0 to 100 scale, 0 is no effect, 100 is complete control) (rice (Oryza sativa)): 60
- Plant response rating, Barnyardgrass (Barnyardgrass [7]): 85
- Plant response rating, Barnyardgrass (Barnyardgrass [8]; [25]): 80
- Plant response rating, Barnyardgrass (Barnyardgrass [8]; [26]): 98
- Plant response rating, Barnyardgrass (Barnyardgrass [8]; [11]): 100

SMILES: CCc1nn(-c2ccc(F)c(F)c2)nc1Oc1ccnc(C(F)(F)F)c1 [Compound 171]
- Plant response rating, Oat, Wild (wild oat (Avena fatua); [9]): 5
- Plant response rating, Oat, Wild (wild oat (Avena fatua); [10]): 5
- Plant response rating, Oat, Wild (wild oat (Avena fatua); [11]): 10
- Plant response rating, Oat, Wild (wild oat (Avena fatua); [12]): 20
- Plant response rating, Wheat [1, 13]: 5
- Plant response rating, Wheat [1, 14]: 10
- Plant response rating, Wheat [1, 15]: 20
- Plant response rating, Wheat [1, 16]: 20
- Plant response rating, Wheat [1, 17]: 0
- Plant response rating, Wheat [1, 18]: 0
- Plant response rating, Wheat [1, 19]: 5
- Plant response rating, Wheat [1, 20]: 45
- Plant response rating, Galium [2, 13]: 70
- Plant response rating, Galium [2, 14]: 75
- Plant response rating, Galium [2, 15]: 80
- Plant response rating, Galium [2, 16]: 80
- Plant response rating, Galium [2, 17]: 5
- Plant response rating, Galium [2, 18]: 98
- Plant response rating, Galium [2, 19]: 98
- Plant response rating, Galium [2, 20]: 100
- Plant response rating, Pigweed [3, 13]: 70
- Plant response rating, Pigweed [3, 14]: 90
- Plant response rating, Pigweed [3, 15]: 90
- Plant response rating, Pigweed [3, 16]: 98
- Plant response rating, Pigweed [3, 17]: 60
- Plant response rating, Pigweed [3, 18]: 100
- Plant response rating, Pigweed [3, 19]: 100
- Plant response rating, Pigweed [3, 20]: 100
- Plant response rating, Barnyardgrass (0 to 100 scale, 0 is no effect, 100 is complete control) [4]: 70
- Plant response rating, Velvetleaf [5, 13]: 25
- Plant response rating, Velvetleaf [5, 14]: 25
- Plant response rating, Velvetleaf [5, 15]: 45
- Plant response rating, Velvetleaf [5, 16]: 75
- Plant response rating, Velvetleaf [5, 17]: 5
- Plant response rating, Velvetleaf [5, 18]: 25
- Plant response rating, Velvetleaf [5, 19]: 55
- Plant response rating, Velvetleaf [5, 20]: 65
- Plant response rating, Velvetleaf [6, 21]: 70
- Velvetleaf plant response rating [6, 22]: 90
- Plant response rating, Velvetleaf [6, 23]: 60
- Plant response rating, Velvetleaf [6, 24]: 80
- Plant response rating, Rice (0 to 100 scale, 0 is no effect, 100 is complete control) (rice (Oryza sativa)): 60
- Plant response rating, Barnyardgrass (Barnyardgrass [7]): 60
- Plant response rating, Barnyardgrass (Barnyardgrass [8]; [25]): 5
- Plant response rating, Barnyardgrass (Barnyardgrass [8]; [26]): 75
- Plant response rating, Barnyardgrass (Barnyardgrass [8]; [11]): 95
